Test results: US5272151A, “Aminoacyl and oligopeptidyl derivatives of allopurinol exhibiting immunostimulatory activity, and pharmaceutical formulations containing these substances” (Sigma-Tau Industrie Farmaceutiche Riunite S.p.A., priority 1991, dated 1993)
Where two headings read alike, the source gives them in different places.

What was measured:
[1] = test system: mouse peritoneal exudate cells (PECs); test: In vitro-ex vivo phagocytic activity of mouse peritoneal exudate cells (PECs); details: for % Phagocytic cells: % of cells that had phagocytosed relative to potential phagocytes in PECs; for % Phagocytic cells / SRBC phagocytosed / SRBC per phagocyte: 25 mg/kg daily i.p. day -5 through day -1; for SRBC phagocytosed: average number of SRBC phagocytosed by 100 potential phagocytes; for SRBC per phagocyte: average number of SRBC phagocytosed per phagocyte
Description: In vitro-ex vivo effects of ST 689 and ST 789 on phagocytic activity of mouse peritoneal exudate cells (PECs).
Male B6 D2 F1 mice (Charles River, Italy), 6 weeks old, in experimental groups of 5 animals, were treated with the above substances i.p. at daily doses of 25 mg/kg from day -5 through day -1 relative to the day the PECs were sampled (day 0). The experimental procedure followed those described in [1] and [2]; briefly, the animals in each group were asphyxiated with CO2, the peritoneal cavities repeatedly washed, and the PECs recovered from each experimental group pooled and standardised to 4×10^6 cells/mL. Aliquots (250 μL) of phagocyte suspension were added to equal volumes of 0.4% SRBC that had been appropriately opsonised with hyperimmune serum. The samples, prepared in duplicate, were incubated for 1 h and then osmotically shocked to eliminate non-phagocytosed erythrocytes. After adjusting the osmolarity to normal values, the phagocytes were centrifuged and differentially stained. Microscopic counts of cells with phagocytic capabilities and of phagocytosed SRBC in fields of 200 cells were performed in triplicate. The results are expressed as % phagocytic cells, the average number of SRBC phagocytosed per phagocyte, and the total number of SRBC phagocytosed per 100 phagocytes.

[2] = Body and spleen weight of rats in the chemotaxis test (Test 3); type: in vivo, rat; details: Fisher 344 rats; 25 mg/kg/d i.p. day -5 through day -1
Description: Inbred male Fisher 344 rats (Charles River, Italy), ca. 6 months old, were used in experimental groups of 5 animals. Test animals received the compounds at dosage of 25 mg/kg daily from day -5 through day -1 relative to the day of blood sampling (day 0). The experimental procedure employed is described in Cates, L. K. et al., Modified Boyden chamber method of measuring polymorphonuclear leukocyte chemotaxis, in Leukocyte chemotaxis, Raven Press, New York, N.Y., 1978, p. 67.

P. mirabilis = test: Protective effect in experimentally-infected immunosuppressed mice (P. mirabilis); type: in vivo; details: for % Mortality, P. mirabilis: cyclophosphamide-immunodepressed CD1 mice, 25 mg/kg/d i.p. day -5 through day -1, challenge day 0
Excerpt: Evaluation of the protective effects of ST 689 and ST 789 in experimentally-infected immunosuppressed mice.
Male CDl mice (Charles River, Italy), 6-10 weeks old, were used in experimental groups of 9-20 animals. Systemic infection in the mice was achieved by intrapcritoncal inoculation of a pathogenic species of Klebsiclla (K. oxytoca), Proteus (P. mirabilis), Serratia (S. marcescens),and Hscherichia (E. coli). Eighteen-hour broth cultures were used to prepare infectious inocula that were either sublethal (Proteus) or which corresponded to an LD30 (Serratia) and an LD10 (Escherichia, Klebsiella). The bacterial challenge, inoculated i.p. in 0.5 mL of 5% gastric mucin, was designed to cause the death of animals immunodepressed with cyclophosphamide (administered i.p. in 0.2 mL of sterile physiological solution at a dosage of 100 mg/kg) 5 days prior to infection. The compounds were administered i.p. at daily doses of 25 mg/kg from day -5 to day -1 with respect to the day of bacterial inoculation (day 0). The results are expressed as % mortality and were statistically analysed using Fisher's test (Biostatistics in Pharmacology, vol. 2, Pergamon Press).

[3] = test system: CEM-CM3 human leukaemic lymphoblasts; test: In vitro-ex vivo cytostatic activity of mouse peritoneal macrophages towards tumour targets; details: for inhibition at 25 mg/kg: Mus musculus, Peritoneal macrophage
Description: In vitro-ex vivo effects of substances ST 689 and ST 789 on the cytostatic activity of mouse peritoneal macrophages (MO) towards tumour targets.
Male B6 D2 F1 mice (Charles River, Italy), 7 weeks old, 5 animals per experimental group, were treated with the above substances i.p. at daily dosages of 25 mg/kg from day -5 through day -1 relative to the day of macrophage sampling (day 0). The tumour target, CEM--CM3 human leukaemic lymphoblasts, was admixed with adherent Mo so as to have two different precisely-measured effector:target ratios, viz. 10:1 and 20:1. Each sample, prepared in triplicate in flat-bottom microliter wells, was labelled with ^3 H--TdR (0.05 μCi) by incubation for 18 h at 37° C. The tumour cells from each well were collected on filters, counted in a β-counter, and the % inhibition of tumour target growth determined using the formula. [formula]

[4] = Weight survey of rats in the IL-2 test (Test 5); type: in vivo, rat; details: Fisher rats; 25 mg/kg daily i.p. day -5 through day -1
Description: (§1) Male Fisher rats (Charles River, Italy), 3 months old, in experimental groups of 5 animals, were treated with the substances at daily dosages of 25 mg/kg from day -5 through day -1 relative to the day the spleens were sampled (day 0). The experimental procedure employed was that reported in [1]. To suspensions of splenocytes, prepared in RPMI 1640 with 10% FCS+1×10^-5 M β-mercaptoethanol and standardised to a concentration of 1×10^7 cells/mL, were added equal volumes of ConA at a concentration of 18 μg/mL/well. After incubating for 48 h at 37° C. in the presence of 5% CO2 the samples were centrifuged and the supernates collected. Serial dilutions of the supernates were added to CTLL-2 cells (a line of T-cells requiring IL-2 for growth) standardised at 5×10^4 cells/mL. Following an overnight incubation, the samples were labelled with ^3 H--TdR (0.5 μCi/well)for 6 h, then the cells were collected on filters using a cell harvester, and counted (cpm) using a β-counter. The results are expressed in units of IL-2, comparing the counts in the samples to a standard curve prepared with purified IL-2 . . . ls1.

IL-2 = test: In vitro-ex vivo production of IL-2 by rat splenocytes (CTLL-2 bioassay); details: for IL-2 in supernates from rat splenocytes: ConA-stimulated splenocytes, 48 h, 25 mg/kg daily i.p. day -5 through day -1
Description: In vitro-ex vivo effect of ST 689 and ST 789 on the production of IL-2 by rat splenocytes.
as §1

SMILES	Effect on the phagocytic capabilities of PECs, in words ([1]; 25 mg/kg daily i.p.)	% Phagocytic cells [1]	SRBC phagocytosed [1]	SRBC per phagocyte [1]	Body wt [2]	Spleen wt [2]	% Mortality, P. mirabilis (P. mirabilis)	Protective activity in Proteus infection, in words (P. mirabilis; immunodepressed mice, 25 mg/kg/d i.p.)	inhibition at 25 mg/kg ([3]; effector:target ratio 10:1, 25 mg/kg daily day -5 through day -1, read-out: % Growth Inhibition 10:1)	inhibition at 25 mg/kg ([3]; effector:target ratio 20:1, 25 mg/kg daily day -5 through day -1, read-out: % Growth Inhibition 20:1)	Body weight [4]	Spleen weight [4]	IL-2 in supernates from rat splenocytes (IL-2)	Production of IL-2 by splenocytes, in words (IL-2; compared to the same dosage of ST 789)	Growth inhibition of the CEM-CM3 cell line, in words ([3]; 25 mg/kg daily i.p.)	% Growth Inhibition 10:1 ([3]; effector:target ratio 10:1, 25 mg/kg daily day -5 through day -1)	% Growth Inhibition 20:1 ([3]; effector:target ratio 20:1, 25 mg/kg daily day -5 through day -1)
O=c1[nH]cnc2c1cnn2CCCCCO [ST 689, 1,5-dihydro-1-(5-hydroxypentyl)-4H-pyrazolo-[3,4-d]-pyrimidin-4-one]	extremely positive effect	42.5 ± 0.5%	229.5 ± 34.5	5.40 ± 0.90	358.0 ± 9.49 g	591.4 ± 17.13 mg	10%	equal to that of ST 789	32.8 ± 1.84%	48 ± 5.46%	271.6 ± 4.76 g	511.0 ± 22.35 mg	183.25 ± 22.55 U/mL	increase in the production of IL-2	–	–	–
N=C(N)NCCC[C@H](NC(=O)OCCCCCn1cnc2c(=O)[nH]cnc21)C(=O)O [ST 789, N-alfa-5-(hypoxanthin-9-yl)-pentyloxycarbonylarginine, reference compound]	–	31.5 ± 0.5%	152.5 ± 9.5	4.85 ± 0.25	345.6 ± 8.84 g	610.0 ± 22.00 mg	11,1%	–	–	–	275.0 ± 3.76 g	539.2 ± 12.11 mg	98.43 ± 4.47 U/mL	–	definite increase in growth inhibition	15.85 ± 3.33%	30.31 ± 5.19%
